According to the supplement of paper PMC10307832:

How the values were obtained:
Assay in all cases: relative viability (nuclei count vs DMSO), 5 days (fraction); higher = more cells survive
[1] = compound: Nc1nc(Nc2ccc3c(c2)CC[C@@H](N2CCCC2)CC3)nn1-c1cc2c(nn1)-c1ccccc1CCC2 [Bemcentinib] + CC(=O)c1c(C)c2cnc(Nc3ccc(N4CCNCC4)cn3)nc2n(C2CCCC2)c1=O [Palbociclib] (partner 0.5 µM)
Summary of the method: (§1)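 Relative viability was taken as the ratio of nuclei in treated wells to nuclei in vehicle wells. Lung cancer cell lines in 1536-well plates received compounds by pin tool one day after seeding, either one drug alone or a fixed anchor-drug dose plus five library-drug doses (not always all listed) in √10 steps. Nuclei were counted on 4× images after 5 days of treatment, and values are medians of duplicate plates.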

Axitinib + Linsitinib = compound: CNC(=O)c1ccccc1Sc1ccc2c(/C=C/c3ccccn3)n[nH]c2c1 [Axitinib] + C[C@]1(O)C[C@@H](c2nc(-c3ccc4ccc(-c5ccccc5)nc4c3)c3c(N)nccn32)C1 [Linsitinib] (partner 1 µM)
Summary of the method: as §1

Bemcentinib + Pemetrexed = compound: Nc1nc(Nc2ccc3c(c2)CC[C@@H](N2CCCC2)CC3)nn1-c1cc2c(nn1)-c1ccccc1CCC2 [Bemcentinib] + Nc1nc2[nH]cc(CCc3ccc(C(=O)N[C@@H](CCC(=O)O)C(=O)O)cc3)c2c(=O)[nH]1 [Pemetrexed] (partner 0.2 µM)
Summary of the method: as §1

Axitinib + Pictilisib = compound: CNC(=O)c1ccccc1Sc1ccc2c(/C=C/c3ccccn3)n[nH]c2c1 [Axitinib] + CS(=O)(=O)N1CCN(Cc2cc3nc(-c4cccc5[nH]ncc45)nc(N4CCOCC4)c3s2)CC1 [Pictilisib] (partner 1 µM)
Summary of the method: as §1

| Cell Line | relative viability ([1]; first compound 0.04 µM) | relative viability ([1]; first compound 0.1265 µM) | relative viability ([1]; first compound 0.4 µM) | relative viability ([1]; first compound 1.265 µM) | relative viability ([1]; first compound 4 µM) | relative viability (Axitinib + Linsitinib; first compound 0.005 µM) | relative viability (Axitinib + Linsitinib; first compound 0.01581 µM) | relative viability (Axitinib + Linsitinib; first compound 0.05 µM) | relative viability (Axitinib + Linsitinib; first compound 0.1581 µM) | relative viability (Axitinib + Linsitinib; first compound 0.5 µM) | relative viability (Bemcentinib + Pemetrexed; first compound 0.04 µM) | relative viability (Bemcentinib + Pemetrexed; first compound 0.1265 µM) | relative viability (Bemcentinib + Pemetrexed; first compound 0.4 µM) | relative viability (Bemcentinib + Pemetrexed; first compound 1.265 µM) | relative viability (Bemcentinib + Pemetrexed; first compound 4 µM) | relative viability (Axitinib + Pictilisib; first compound 0.005 µM) | relative viability (Axitinib + Pictilisib; first compound 0.01581 µM) | relative viability (Axitinib + Pictilisib; first compound 0.05 µM) | relative viability (Axitinib + Pictilisib; first compound 0.1581 µM) | relative viability (Axitinib + Pictilisib; first compound 0.5 µM) |
| --- | --- | --- | --- | --- | --- | --- | --- | --- | --- | --- | --- | --- | --- | --- | --- | --- | --- | --- | --- | --- |
| NCI-H2009 | 0.185 | 0.21 | 0.225 | 0.239 | 0.261 | 1.23 | 1.18 | 1.21 | 1.28 | 1.36 | 1.03 | 1.07 | 1.12 | 1.07 | 1.01 | 0.875 | 0.877 | 1 | 0.868 | 1.04 |
| NCI-H1944 | 0.324 | 0.379 | 0.304 | 0.327 | 0.329 | 1.24 | 1.16 | 1.16 | 1.16 | 1.24 | 0.633 | 0.66 | 0.649 | 0.589 | 0.634 | 0.356 | 0.336 | 0.357 | 0.351 | 0.357 |
| SW 1573 | 0.395 | 0.407 | 0.416 | 0.391 | 0.364 | 0.911 | 0.855 | 0.899 | 0.8 | 0.84 | 0.944 | 0.865 | 0.89 | 0.839 | 0.725 | 0.507 | 0.462 | 0.576 | 0.444 | 0.463 |
| NCI-H1975 | 0.561 | 0.827 | 0.665 | 0.567 | 0.746 | 1.17 | 1.1 | 1.09 | 0.988 | 1.18 | 0.307 | 0.362 | 0.301 | 0.283 | 0.299 | 0.334 | 0.311 | 0.365 | 0.317 | 0.377 |
| NCI-H661 | 0.384 | 0.385 | 0.439 | 0.375 | 0.382 | 0.717 | 0.58 | 0.418 | 0.542 | 0.666 | 0.906 | 0.953 | 0.965 | 0.899 | 0.991 | 0.387 | 0.422 | 0.339 | 0.46 | 0.375 |
| UMC-11 | 0.354 | 0.343 | 0.323 | 0.349 | 0.324 | 1.08 | 0.982 | 1.02 | 1.04 | 1.1 | 0.839 | 0.881 | 0.969 | 0.808 | 0.728 | 0.818 | 0.82 | 0.857 | 0.835 | 0.627 |
| NCI-H520 | 0.235 | 0.198 | 0.265 | 0.221 | 0.352 | 0.972 | 0.996 | 0.989 | 0.84 | 1.03 | 0.65 | 0.848 | 0.788 | 0.686 | 0.785 | 0.326 | 0.247 | 0.288 | 0.272 | 0.327 |
| NCI-H1650 | 0.324 | 0.366 | 0.307 | 0.354 | 0.373 | – | – | – | – | – | 0.327 | 0.337 | 0.414 | 0.391 | 0.364 | 0.624 | 0.36 | 0.644 | 0.529 | 0.585 |
